Measurements reported in PMC4621751 (The Journal of General Physiology, 2015).

What was measured:
[1] = molecular target: T1, human Elk1 (HsElk1, Kv12.1, KCNH8) (Homo sapiens, UniProt Q96L42); assay: inside-out patch clamp, Hill fit of activation time constant; assay type: cell-based
T1 sequence (Q96L42 1-1107): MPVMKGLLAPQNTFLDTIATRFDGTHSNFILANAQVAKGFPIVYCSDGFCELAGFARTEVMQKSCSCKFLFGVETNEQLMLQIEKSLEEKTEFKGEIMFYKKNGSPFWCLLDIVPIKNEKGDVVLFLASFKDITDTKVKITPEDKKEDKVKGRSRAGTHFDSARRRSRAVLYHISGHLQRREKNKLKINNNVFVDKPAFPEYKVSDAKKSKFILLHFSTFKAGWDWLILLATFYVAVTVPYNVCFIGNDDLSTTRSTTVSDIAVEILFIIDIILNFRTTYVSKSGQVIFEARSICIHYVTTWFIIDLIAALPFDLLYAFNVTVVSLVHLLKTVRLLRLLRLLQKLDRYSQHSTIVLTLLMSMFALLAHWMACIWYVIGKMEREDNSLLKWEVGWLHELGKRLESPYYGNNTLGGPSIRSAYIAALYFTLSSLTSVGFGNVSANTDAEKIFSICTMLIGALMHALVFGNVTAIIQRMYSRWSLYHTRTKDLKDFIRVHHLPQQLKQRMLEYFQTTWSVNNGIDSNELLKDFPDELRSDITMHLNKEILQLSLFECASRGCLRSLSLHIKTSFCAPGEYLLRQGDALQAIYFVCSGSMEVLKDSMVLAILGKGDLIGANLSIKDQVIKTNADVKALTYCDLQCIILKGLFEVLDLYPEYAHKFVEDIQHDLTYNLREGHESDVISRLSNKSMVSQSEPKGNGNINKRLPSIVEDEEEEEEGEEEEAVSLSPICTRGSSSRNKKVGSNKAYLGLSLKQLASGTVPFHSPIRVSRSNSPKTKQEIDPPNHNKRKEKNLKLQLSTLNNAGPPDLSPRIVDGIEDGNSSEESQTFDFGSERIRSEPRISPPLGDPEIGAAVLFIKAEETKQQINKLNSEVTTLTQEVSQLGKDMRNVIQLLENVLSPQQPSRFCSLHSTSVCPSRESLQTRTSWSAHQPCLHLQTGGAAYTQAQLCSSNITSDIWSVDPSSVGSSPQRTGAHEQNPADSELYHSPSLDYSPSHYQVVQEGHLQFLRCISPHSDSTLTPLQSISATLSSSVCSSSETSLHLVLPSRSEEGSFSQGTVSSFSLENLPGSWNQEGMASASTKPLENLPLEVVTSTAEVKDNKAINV

[2] = molecular target: T1, human Elk1 (HsElk1, Kv12.1, KCNH8); assay: inside-out patch clamp, activation time constant; assay type: biochemical; conditions: -20 mV, intracellular application, excised patch, pH 7.2

SMILES: CCCCCCCC(=O)OC[C@H](COP(=O)(O)O[C@@H]1[C@H](O)[C@H](O)[C@@H](OP(=O)(O)O)[C@H](OP(=O)(O)O)[C@H]1O)OC(=O)CCCCCCC [diC8-PIP2]
- EC50 [1]: 12.7 ± 2.2 µM

SMILES: CCCCCCCC(=O)OC[C@H](COP(=O)(O)O[C@H]1[C@H](O)[C@@H](OP(=O)(O)O)[C@H](OP(=O)(O)O)[C@@H](OP(=O)(O)O)[C@H]1O)OC(=O)CCCCCCC [diC8-PIP3]
- fold change of τact at 10 μM [2]: PIP3 slowed activation significantly more than PIP2
